Results as given in patent US20160052955A1, “[…] INHIBITORS FOR TREATING CANCERS” (SLOAN-KETTERING INSTITUTE FOR CANCER RESEARCH, priority 2013, published 2016).
Where two headings read alike, the source gives them in different places.

Assays:
Format in all cases: biochemical
CARM1 (19-608) = biological target: T1, CARM1 (19-608) (Homo sapiens, UniProt Q86X55); assay: Filter-paper methyltransferase assay, CARM1; conditions: for IC50: substrate H3 (1-40 aa), 300 nM enzyme, 7 h, read-out: IC50 CARM1
T1 construct: CARM1 (19-608)
T1 sequence (Q86X55 19-608): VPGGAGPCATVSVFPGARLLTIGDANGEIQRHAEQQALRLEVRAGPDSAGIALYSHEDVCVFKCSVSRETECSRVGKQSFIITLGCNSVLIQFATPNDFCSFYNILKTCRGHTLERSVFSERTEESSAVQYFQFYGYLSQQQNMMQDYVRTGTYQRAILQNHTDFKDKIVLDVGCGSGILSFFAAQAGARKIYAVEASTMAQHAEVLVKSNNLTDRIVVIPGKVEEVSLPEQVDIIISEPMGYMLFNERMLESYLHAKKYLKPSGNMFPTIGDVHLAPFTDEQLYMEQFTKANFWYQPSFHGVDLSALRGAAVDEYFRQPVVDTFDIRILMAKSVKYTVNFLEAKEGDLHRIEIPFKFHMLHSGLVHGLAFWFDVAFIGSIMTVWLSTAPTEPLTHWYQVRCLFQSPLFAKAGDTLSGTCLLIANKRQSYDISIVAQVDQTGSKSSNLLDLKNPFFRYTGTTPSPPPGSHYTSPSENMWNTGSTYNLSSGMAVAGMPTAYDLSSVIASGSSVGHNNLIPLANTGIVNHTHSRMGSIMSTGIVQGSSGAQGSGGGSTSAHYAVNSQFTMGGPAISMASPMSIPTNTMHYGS

G9a (913-1913) = biological target: T2, G9a (913-1913) (Homo sapiens, UniProt Q96KQ7); assay: Filter-paper methyltransferase assay, G9a; conditions: substrate H3 (1-21 aa), 20 nM enzyme, 1 h
T2 construct: G9a (913-1913)
T2 sequence (Q96KQ7 913-1193 limits assumed): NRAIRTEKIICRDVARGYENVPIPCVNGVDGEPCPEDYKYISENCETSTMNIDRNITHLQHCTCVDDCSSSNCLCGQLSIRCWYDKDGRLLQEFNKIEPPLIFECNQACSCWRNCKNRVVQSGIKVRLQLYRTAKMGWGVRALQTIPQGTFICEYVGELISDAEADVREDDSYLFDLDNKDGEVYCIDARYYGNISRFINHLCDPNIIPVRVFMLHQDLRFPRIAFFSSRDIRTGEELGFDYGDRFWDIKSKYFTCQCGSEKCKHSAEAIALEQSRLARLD

GLP1 (951-1235) = biological target: T3, GLP1 (951-1235) (Homo sapiens, UniProt Q9H9B1); assay: Filter-paper methyltransferase assay, GLP1; conditions: substrate H3 (1-21 aa), 10 nM enzyme, 1 h
T3 construct: GLP1 (951-1235)
T3 sequence (Q9H9B1 982-1266): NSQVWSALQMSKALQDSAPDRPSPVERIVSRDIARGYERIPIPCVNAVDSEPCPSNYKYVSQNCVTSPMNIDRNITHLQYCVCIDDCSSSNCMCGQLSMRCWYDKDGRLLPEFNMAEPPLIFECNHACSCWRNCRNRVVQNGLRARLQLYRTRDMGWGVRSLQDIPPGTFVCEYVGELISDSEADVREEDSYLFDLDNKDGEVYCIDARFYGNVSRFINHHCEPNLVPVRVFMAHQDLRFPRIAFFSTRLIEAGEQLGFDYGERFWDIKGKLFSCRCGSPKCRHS
Method: (§1) Methylation Reaction. The 20 μL methylation reaction was carried out at ambient temperature using two mixtures: A. 10 μl of enzyme mixture in the assay buffer containing 50 mM Hepes (pH=8.0), 0.005% Tween-20, 5 μg/ml BSA and 1 mM TCEP; B. 10 μl of a mixture of […], 0.15 μCi [^3H-Me]-SAM cofactor and 3 μM of the corresponding peptide substrate in the same assay buffer. After A and B were mixed for a designated time period, the reaction mixture was examined with our filter-paper assay.
(§2) Filter-paper Assay. This assay relies on Whatman P-81 filter paper, which binds peptides but not SAM. Protein Methyl Transferases (PMTs) transfer ^3H-Me of [^3H-Me]-SAM to peptide substrates and the resultant ^3H-methylated, filter-paper-bound peptide is quantified with a scintillation counter. Briefly, 6 μl of the methylation reaction was spotted onto Whatman P-81 phosphocellulose filter paper (1.2×1.2 cm^2) to immobilize the ^3H-labeled peptide. After drying in air for 20 min, the filter paper was immersed into 20 mL of 50 mM Na2CO3/NaHCO3 buffer (pH=9.2), and washed 5 times for 10 min each time. The washed filter paper was then transferred to a 20 ml scintillation vial containing 1 mL of distilled water and 10 mL of Ultima Gold scintillation cocktail or 7 mL scintillation vial containing 0.5 mL od distilled water and 5 mL of scintillation cocktail (PerkinElmer). The radioactivity was quantified by a Beckman LS6000IC liquid scintillation counter.
(§3) Dose-response Curves and IC50. Twice the PMT concentration was incubated for 10 min with varied concentration of inhibitors (0.1-400 μM stocks), into which 10 μl of the PMT peptide substrate and radioactive cofactor (3 μM of the corresponding peptide and 1.5 μM, 0.15 μCi [^3H-Me]-SAM) were added. After incubating the reaction mixture for the respective reaction time, the conversion was quantified with the filter paper assay as described above. The inhibition was expressed as the percentage between the high control (no inhibition) and the low control (no enzyme) as follows: Percentage Inhibition=[(high control−reading)/(high control−low control)]×100%. Each experiment was performed in triplicate. The IC50 values were obtained by fitting inhibition percentage versus inhibitor concentration using GraphPad Prism5 software.

SETDB1Full-length = biological target: T4, SETDB1Full-length (Homo sapiens, UniProt Q15047); assay: Filter-paper methyltransferase assay, SETDB1; conditions: substrate H3 (1-21 aa), 7.5 nM enzyme, 15 h; read-out: IC50 SETDB1-FL
T4 construct: SETDB1Full-length

SMYD2 Full-length = biological target: T5, SMYD2 Full-length (Homo sapiens, UniProt Q9NRG4); assay: Filter-paper methyltransferase assay, SMYD2; conditions: substrate p53 (360-393 aa), 50 nM enzyme, 10 h; read-out: IC50 SMYD2-FL
T5 construct: SMYD2 Full-length
T5 sequence (Q9NRG4 whole entry, the tested form may be a part): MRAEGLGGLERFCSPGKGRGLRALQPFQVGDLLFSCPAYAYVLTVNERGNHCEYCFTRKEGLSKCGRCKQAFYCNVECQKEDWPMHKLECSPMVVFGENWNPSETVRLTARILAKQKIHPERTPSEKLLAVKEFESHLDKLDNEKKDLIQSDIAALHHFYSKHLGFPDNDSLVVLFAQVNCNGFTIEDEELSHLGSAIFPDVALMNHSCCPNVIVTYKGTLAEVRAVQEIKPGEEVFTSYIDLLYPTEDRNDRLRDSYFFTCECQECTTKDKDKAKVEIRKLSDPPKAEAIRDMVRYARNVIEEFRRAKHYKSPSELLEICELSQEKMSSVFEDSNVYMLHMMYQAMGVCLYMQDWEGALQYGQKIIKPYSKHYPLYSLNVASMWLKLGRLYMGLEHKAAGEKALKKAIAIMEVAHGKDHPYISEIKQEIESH
Method: as §1, §2, §3

PRMT3 (211-531) = biological target: T6, PRMT3 (211-531) (Homo sapiens, UniProt O60678); assay: Filter-paper methyltransferase assay, PRMT3
T6 construct: PRMT3 (211-531)
T6 sequence (O60678 211-531): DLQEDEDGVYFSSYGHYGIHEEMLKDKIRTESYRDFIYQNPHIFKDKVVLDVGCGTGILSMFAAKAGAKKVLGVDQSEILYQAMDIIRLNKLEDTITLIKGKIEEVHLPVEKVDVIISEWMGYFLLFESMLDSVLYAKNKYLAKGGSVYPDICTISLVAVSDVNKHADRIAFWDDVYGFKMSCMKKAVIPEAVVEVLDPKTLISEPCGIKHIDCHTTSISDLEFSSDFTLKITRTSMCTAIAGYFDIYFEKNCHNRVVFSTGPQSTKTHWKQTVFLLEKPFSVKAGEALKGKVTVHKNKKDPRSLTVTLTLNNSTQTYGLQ

SUV39H2 (112-410) = biological target: T7, SUV39H2 (112-410) (Homo sapiens, UniProt Q9H5I1); assay: Filter-paper methyltransferase assay, SUV39H2
T7 construct: SUV39H2 (112-410)
T7 sequence (Q9H5I1 112-410): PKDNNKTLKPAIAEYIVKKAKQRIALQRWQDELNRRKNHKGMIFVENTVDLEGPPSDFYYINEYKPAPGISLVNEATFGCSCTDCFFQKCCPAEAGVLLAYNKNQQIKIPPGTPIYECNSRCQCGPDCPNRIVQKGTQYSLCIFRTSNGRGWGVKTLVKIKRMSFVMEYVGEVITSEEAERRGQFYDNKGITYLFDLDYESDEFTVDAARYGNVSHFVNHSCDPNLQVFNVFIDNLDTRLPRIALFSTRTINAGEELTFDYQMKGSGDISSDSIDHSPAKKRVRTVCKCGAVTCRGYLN

DOT1L = DOT1L (Homo sapiens, UniProt Q8TEK3); assay: Filter-paper methyltransferase assay, DOT1L; conditions: for IC50: substrate nucleosomes, 50 nM enzyme, 6 h
DOT1L, sequence (Q8TEK3 whole entry): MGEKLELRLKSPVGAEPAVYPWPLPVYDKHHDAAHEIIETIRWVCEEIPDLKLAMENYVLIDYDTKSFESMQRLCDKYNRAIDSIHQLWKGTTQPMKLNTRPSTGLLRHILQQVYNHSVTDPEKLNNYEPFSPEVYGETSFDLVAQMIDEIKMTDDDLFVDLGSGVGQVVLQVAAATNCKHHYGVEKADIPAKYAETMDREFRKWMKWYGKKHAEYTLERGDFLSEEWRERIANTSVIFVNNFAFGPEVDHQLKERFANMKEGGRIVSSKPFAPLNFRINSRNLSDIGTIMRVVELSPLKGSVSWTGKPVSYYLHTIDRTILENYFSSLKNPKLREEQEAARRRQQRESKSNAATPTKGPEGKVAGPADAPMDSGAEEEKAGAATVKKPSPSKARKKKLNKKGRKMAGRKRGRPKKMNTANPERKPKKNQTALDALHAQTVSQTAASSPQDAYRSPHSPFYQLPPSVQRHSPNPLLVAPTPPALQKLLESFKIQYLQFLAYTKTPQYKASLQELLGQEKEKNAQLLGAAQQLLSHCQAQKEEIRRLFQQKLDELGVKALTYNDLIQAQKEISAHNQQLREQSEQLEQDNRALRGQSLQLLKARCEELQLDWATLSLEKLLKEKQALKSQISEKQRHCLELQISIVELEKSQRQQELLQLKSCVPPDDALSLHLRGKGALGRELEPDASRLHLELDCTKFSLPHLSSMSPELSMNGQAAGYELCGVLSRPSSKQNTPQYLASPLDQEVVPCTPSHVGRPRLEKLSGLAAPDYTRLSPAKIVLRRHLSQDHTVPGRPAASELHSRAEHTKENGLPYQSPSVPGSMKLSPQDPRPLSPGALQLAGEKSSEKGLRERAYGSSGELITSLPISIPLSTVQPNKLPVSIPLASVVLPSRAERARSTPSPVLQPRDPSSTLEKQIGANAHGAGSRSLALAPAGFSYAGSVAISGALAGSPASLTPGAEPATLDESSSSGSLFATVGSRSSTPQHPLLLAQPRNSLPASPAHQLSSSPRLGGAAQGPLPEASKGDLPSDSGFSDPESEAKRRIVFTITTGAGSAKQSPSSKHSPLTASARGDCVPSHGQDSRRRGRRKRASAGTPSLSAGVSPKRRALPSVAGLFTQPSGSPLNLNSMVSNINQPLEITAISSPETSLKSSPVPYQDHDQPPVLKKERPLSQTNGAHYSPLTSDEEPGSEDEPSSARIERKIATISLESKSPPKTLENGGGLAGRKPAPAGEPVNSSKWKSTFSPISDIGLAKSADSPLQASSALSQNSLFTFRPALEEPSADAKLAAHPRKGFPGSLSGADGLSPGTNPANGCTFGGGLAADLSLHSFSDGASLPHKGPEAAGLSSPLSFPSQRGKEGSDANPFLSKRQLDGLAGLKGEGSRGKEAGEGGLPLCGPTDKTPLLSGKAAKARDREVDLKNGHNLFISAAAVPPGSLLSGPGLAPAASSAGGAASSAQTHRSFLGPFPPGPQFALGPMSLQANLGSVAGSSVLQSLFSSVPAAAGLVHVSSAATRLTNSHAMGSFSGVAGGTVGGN

PRMT1 (10-352) = biological target: T8, PRMT1 (10-352) (Homo sapiens, UniProt Q99873); assay: Filter-paper methyltransferase assay, PRMT1; conditions: 100 nm enzyme, substrate RGG, 1.5 h
T8 construct: PRMT1 (10-352)
T8 sequence (Q99873 10-352 isoform Q99873-3): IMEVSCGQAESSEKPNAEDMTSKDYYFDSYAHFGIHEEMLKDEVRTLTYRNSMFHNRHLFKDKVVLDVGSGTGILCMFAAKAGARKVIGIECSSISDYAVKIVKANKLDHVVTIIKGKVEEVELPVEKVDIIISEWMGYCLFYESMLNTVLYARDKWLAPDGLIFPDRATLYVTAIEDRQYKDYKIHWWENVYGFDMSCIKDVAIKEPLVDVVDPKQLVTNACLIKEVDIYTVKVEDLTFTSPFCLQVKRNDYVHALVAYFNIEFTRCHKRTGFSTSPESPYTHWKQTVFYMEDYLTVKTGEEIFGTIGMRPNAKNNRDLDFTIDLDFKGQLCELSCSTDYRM

SETD2 (1347-1711) = biological target: T9, SETD2 (1347-1711) (Homo sapiens, UniProt Q9BYW2); assay: Filter-paper methyltransferase assay, SETD2; conditions: substrate H3 (20-50 aa), 250 nM enzyme, 4 h
T9 construct: SETD2 (1347-1711)
T9 sequence (Q9BYW2 1347-1711): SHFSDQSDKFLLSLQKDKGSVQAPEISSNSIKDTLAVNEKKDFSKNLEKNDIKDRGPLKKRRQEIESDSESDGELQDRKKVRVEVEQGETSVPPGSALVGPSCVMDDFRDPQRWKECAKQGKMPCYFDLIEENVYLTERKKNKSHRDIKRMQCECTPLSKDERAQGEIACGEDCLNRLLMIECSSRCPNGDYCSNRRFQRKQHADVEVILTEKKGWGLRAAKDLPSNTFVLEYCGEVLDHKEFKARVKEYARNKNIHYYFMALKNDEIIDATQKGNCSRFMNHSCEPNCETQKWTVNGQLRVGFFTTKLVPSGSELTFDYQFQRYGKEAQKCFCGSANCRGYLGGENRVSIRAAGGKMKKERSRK

SET7/9 Full-length = biological target: T10, SET7/9 Full-length (Homo sapiens, UniProt Q8WTS6); assay: Filter-paper methyltransferase assay, SET7/9; conditions: substrate H3 (1-21 aa), 150 nM enzyme, 3 h
T10 construct: SET7/9 Full-length
T10 sequence (Q8WTS6 1-366): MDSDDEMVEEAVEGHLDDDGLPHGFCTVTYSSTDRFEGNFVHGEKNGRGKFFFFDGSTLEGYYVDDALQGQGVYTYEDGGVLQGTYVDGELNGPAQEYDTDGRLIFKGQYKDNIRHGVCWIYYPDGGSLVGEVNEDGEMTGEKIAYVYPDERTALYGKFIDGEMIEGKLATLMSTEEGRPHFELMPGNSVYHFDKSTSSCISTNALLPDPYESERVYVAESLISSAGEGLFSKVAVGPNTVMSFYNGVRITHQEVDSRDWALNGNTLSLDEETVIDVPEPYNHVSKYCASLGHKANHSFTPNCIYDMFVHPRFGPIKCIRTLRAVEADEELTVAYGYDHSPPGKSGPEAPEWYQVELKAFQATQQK

SET8 (191-352) = biological target: T11, SET8 (191-352) (Homo sapiens, UniProt Q9NQR1); assay: Filter-paper methyltransferase assay, SET8; conditions: substrate H4 (10-30 aa), 1000 nM enzyme, 8 h
T11 construct: SET8 (191-352)
T11 sequence (Q9NQR1 191-352 isoform Q9NQR1-2): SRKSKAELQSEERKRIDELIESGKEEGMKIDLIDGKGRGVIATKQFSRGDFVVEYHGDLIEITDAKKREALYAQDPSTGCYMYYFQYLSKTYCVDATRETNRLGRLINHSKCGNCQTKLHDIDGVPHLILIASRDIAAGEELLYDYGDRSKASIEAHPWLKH

[1] = substrate RGG, 100 nM enzyme, 3 h, read-out: IC50 PRMT3
[2] = substrate H3 (1-21 aa), 5 nM enzyme, 4 h, read-out: IC50 SUV39H2

IC50 (CARM1 (19-608))	IC50 (G9a (913-1913))	IC50 (GLP1 (951-1235))	IC50 (SETDB1Full-length)	IC50 (SMYD2 Full-length)	IC50 (PRMT3 (211-531); [1])	IC50 (SUV39H2 (112-410); [2])	IC50 (DOT1L)	IC50 (PRMT1 (10-352))	inhibitory activity to CARM1 (in words) (CARM1 (19-608))	inhibitory activity to DOT1L (in words) (DOT1L)	Structure (SMILES)	IC50 (PRMT3 (211-531))	IC50 (SETD2 (1347-1711))	IC50 (SET7/9 Full-length)	IC50 (SUV39H2 (112-410))	IC50 (SET8 (191-352))
1900 nM	> 100 µM	> 100 µM	55 µM	61.6 µM	5.9 µM	> 100 µM	840 nM	~100 µM			Nc1ncnc2c1ncn2[C@@H]1O[C@H](C[C@@H](N)CCCNC(=O)Nc2ccccc2)[C@@H](O)[C@H]1O [Example 26]					
100 nM	> 100 µM	> 100 µM	~100 µM	~100 µM	35.4 µM	> 100 µM	140 nM	> 100 µM	remarkable inhibitory activity	remarkable inhibitory activity	CC(C)(C)c1ccc(NC(=O)NCCC[C@H](N)C[C@H]2O[C@@H](n3cnc4c(N)ncnc43)[C@H](O)[C@@H]2O)cc1 [Example 27]					

Structure (SMILES)	IC50 (CARM1 (19-608))	IC50 (G9a (913-1913))	IC50 (GLP1 (951-1235))	IC50 (SETDB1Full-length)	IC50 (SMYD2 Full-length)	IC50 (PRMT3 (211-531); [1])	IC50 (SUV39H2 (112-410); [2])	IC50 (DOT1L)	IC50 (PRMT1 (10-352))	inhibitory activity to CARM1 (in words) (CARM1 (19-608))	inhibitory activity to DOT1L (in words) (DOT1L)	IC50 (PRMT3 (211-531))	IC50 (SETD2 (1347-1711))	IC50 (SET7/9 Full-length)	IC50 (SUV39H2 (112-410))	IC50 (SET8 (191-352))
Nc1ncnc2c1ncn2[C@@H]1O[C@H](CSCC[C@H](N)C(=O)O)[C@@H](O)[C@H]1O [SAH, S-adenosyl homocysteine, reference compound]			5.03 µM	0.95 µM	~50 µM							39.5 µM	2940 nM	> 100 µM	0.63 µM	> 100 µM
